From PMC9601613, “Development of a Fluorescence Polarization Assay for Multi-Determination of 10 Aminoglycosides in Pork Muscle Sample Based on Ribosomal Protein S12 and Studying Its Recognition Mechanism” (Foods, 2022)

Experiments:
[1] = molecular target: T1, RpsL12 (ribosomal protein S12) (Lysinibacillus sphaericus, UniProt B1HMZ3); assay: fluorescence polarization competition with tracer STR-FITC; type: binding
T1 construct: gene rpsL; isolated ribosomal protein without rRNA; 426 bp gene in pET32a(+), purified from soluble fraction of E. coli BL21
T1 sequence (B1HMZ3 1-139): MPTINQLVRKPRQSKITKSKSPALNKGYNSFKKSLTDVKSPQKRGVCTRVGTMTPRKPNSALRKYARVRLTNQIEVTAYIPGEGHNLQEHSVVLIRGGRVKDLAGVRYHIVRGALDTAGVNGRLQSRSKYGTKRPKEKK
Source text: fluorescence polarization competition with tracer STR-FITC on RpsL12 (ribosomal protein S12)

[2] = molecular target: T1, RpsL12 (ribosomal protein S12); assay: surface plasmon resonance; type: binding; details: log2-transformed affinity, not an association constant in 1/M; sign as printed; KD itself only in supplement
Source text: surface plasmon resonance on RpsL12 (ribosomal protein S12)

[3] = molecular target: T1, RpsL12 (ribosomal protein S12); assay: biochemical; set-up: surface plasmon resonance, binding kinetics and equilibrium dissociation constant of aminoglycosides to RpsL12; details: for kon: read-out: Ka; for koff: read-out: Kd
Description: The affinities of the RpsL12 for the 10 AGs were determined by using the surface plasmon resonance technique (SPR), and the assay procedures were performed according to our recent report (see Supplementary Materials). During the SPR test, the association constant (Ka), dissociation constant (Kd), and equilibrium dissociation constant (KD = Kd/Ka) for the 10 AGs were determined. Furthermore, the absolute affinity constants (KA=Log2(KD)) for the 10 AGs were also calculated, which were used to conveniently compare their affinities. For confirmation of the molecular docking results, the receptor affinities for the 10 drugs were also determined by SPR. […] The recognition mechanisms of RpsL12 protein for AGs reported in the present study were more comprehensive than the previous report. The recombinant plasmids were synthesized at Sangon Biotech Co., Ltd. (Shanghai, China) by inserting the RpsL12 gene of Lysinibacillus sphaericus (GenBank ID: AHC30887.1) into the express vector pET32a(+). The plasmids containing the express vector pET32a-RpsL12 were transformed into BL21 (D3) for acculturation, and the gene products in the positive colonies were characterized by a polymerase chain reaction and DNA sequencing. Then the RpsL12 was expressed with the same procedures as those described in our recent report (see Supplementary Materials), and the obtained product was analyzed with SDS-PAGE electrophoresis and Western blotting.

Compound	IC50 [1]	KA [2]	Kd [3]	kon [3]	koff [3]
NCC[C@H](O)C(=O)N[C@@H]1C[C@H](N)[C@@H](O[C@H]2O[C@H](CN)[C@@H](O)[C@H](O)[C@H]2O)[C@H](O)[C@H]1O[C@H]1O[C@H](CO)[C@@H](O)[C@H](N)[C@H]1O [amikacin]	116 nM	24.487	42.5 nM	1690 M⁻¹ s⁻¹	7.2e-05 s⁻¹
CN[C@@H]1[C@@H](O[C@H]2O[C@H](CO)[C@@H](N)[C@H](O)[C@H]2O)O[C@H]2C[C@@H](N)[C@@H](O[C@H]3[C@H](O)[C@@H](O)[C@H](N)C[C@@H]3N)O[C@@H]2[C@@H]1O [apramycin]				20200 M⁻¹ s⁻¹	0.000281 s⁻¹
CCN[C@@H]1C[C@H](N)[C@@H](O[C@H]2O[C@H](CN)CC[C@H]2N)[C@H](O)[C@H]1O[C@H]1OC[C@](C)(O)[C@H](NC)[C@H]1O [etimicin]	129 nM	11.358	381000 nM	51.2 M⁻¹ s⁻¹	0.0195 s⁻¹
CNC(C)[C@@H]1CC[C@@H](N)[C@@H](O[C@H]2[C@H](O)[C@@H](O[C@H]3OC[C@](C)(O)[C@H](NC)[C@H]3O)[C@H](N)C[C@@H]2N)O1 (stereo partly drawn) [gentamicin]			4720 nM	2180 M⁻¹ s⁻¹	0.0103 s⁻¹
CNC[C@@H]1CC[C@@H](N)[C@@H](O[C@H]2[C@H](O)[C@@H](O[C@H]3OC[C@](C)(O)[C@H](NC)[C@H]3O)[C@H](N)C[C@@H]2N)O1 [micronomicin]	137 nM	14.666	38500 nM	141 M⁻¹ s⁻¹	0.00543 s⁻¹
NC[C@@H]1O[C@H](O[C@H]2[C@@H](O)[C@H](O[C@@H]3[C@@H](O)[C@H](N)C[C@H](N)[C@H]3O[C@H]3O[C@H](CN)[C@@H](O)[C@H](O)[C@H]3N)O[C@@H]2CO)[C@H](N)[C@@H](O)[C@@H]1O [neomycin]	78.6 nM	25.997	14.9 nM	3150 M⁻¹ s⁻¹	4.7e-05 s⁻¹
CCNC1CC(N)C(OC2OC(CN)=CCC2N)C(O)C1OC1OCC(C)(O)C(NC)C1O (stereo not drawn) [netimicin]				37.1 M⁻¹ s⁻¹	0.00141 s⁻¹
NC[C@@H]1O[C@H](O[C@H]2[C@@H](O)[C@H](O[C@@H]3[C@@H](O)[C@H](N)C[C@H](N)[C@H]3O[C@H]3O[C@H](CO)[C@@H](O)[C@H](O)[C@H]3N)O[C@@H]2CO)[C@H](N)[C@@H](O)[C@@H]1O [paromomycin]	117 nM	23.851	66.1 nM	263000 M⁻¹ s⁻¹	0.0174 s⁻¹
CN[C@@H]1[C@H](O)[C@H](NC)[C@H]2O[C@@]3(O)C(=O)C[C@@H](C)O[C@H]3O[C@@H]2[C@H]1O [spectinomycin]	188 nM	23.900	63.9 nM	211000 M⁻¹ s⁻¹	0.0135 s⁻¹
CN[C@@H]1[C@H](O[C@H]2[C@H](O[C@H]3[C@H](O)[C@@H](O)[C@H](N=C(N)N)[C@@H](O)[C@@H]3N=C(N)N)O[C@@H](C)[C@]2(O)C=O)O[C@@H](CO)[C@H](O)[C@H]1O [streptomycin]	102 nM	24.670	37.5 nM	8200 M⁻¹ s⁻¹	0.000307 s⁻¹
